Data on 32 molecules can be found in patent publication US7495104B2, “Quinoline or quinazoline derivatives inhibiting auto-phosphorylation of fibroblast growth factor receptors” (Kirin Beer Kabushiki Kaisha, priority 2001, dated 2009).

Counter-ions that a name gives are not always drawn.

Sequence of Bek (P21802 431-767 limits assumed): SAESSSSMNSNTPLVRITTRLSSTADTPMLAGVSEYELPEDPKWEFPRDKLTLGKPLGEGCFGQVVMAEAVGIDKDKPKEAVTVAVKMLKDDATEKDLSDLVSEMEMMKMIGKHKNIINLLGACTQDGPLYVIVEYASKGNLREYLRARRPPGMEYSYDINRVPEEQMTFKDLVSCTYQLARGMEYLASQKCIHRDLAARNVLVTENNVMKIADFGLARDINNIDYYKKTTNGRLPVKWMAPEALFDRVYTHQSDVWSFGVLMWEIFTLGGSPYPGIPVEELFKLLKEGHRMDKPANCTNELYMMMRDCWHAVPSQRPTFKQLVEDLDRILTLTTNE

In this assay the target is Bek (Homo sapiens, UniProt P21802). Put plainly: Inhibitory activity against Bek-autophosphorylation using ELISA method in OCUM-2MD3 cells. In kind it is cell-based. Particulars: 1 hr with compound, read-out: IC50 (concentration necessary for inhibiting 50% of Bek-phosphorylation). An outline of the steps:
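OCUM-2MD3 human scirrhous gastric cancer cells in 0.1% FCS were exposed to compound for 1 hr at 37° C, then lysed. Phospho-tyrosine proteins were captured with anti-phosphotyrosine antibody, probed with anti-Bek antibody and peroxidase read-out (A450). Positive control (1000 nM) set 0%, untreated 100%; IC50 from multi-level dilutions.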
Regarding `CCN(CCO)CCCOc1cc2nccc(Oc3ccc(NC(=O)NCCC(C)(C)C)c(F)c3)c2cc1OC` [Compound 344, 1-(3,3-Dimethyl-butyl)-3-[4-(7-{3-[ethyl-(2-hydroxy-ethyl)-amino]-propoxy}-6-methoxy-quinolin-4-yloxy)-2-fluoro-phenyl]-urea], the IC50 is less than 10 nM. In the case of `COc1cc2c(Oc3ccc(Nc4ccc(C(C)(C)C)cc4)cc3)ccnc2cc1OCCCCl` [Compound 23, (4-Tert-butylphenyl)-{4-[7-(3-chloropropoxy)-6-methoxyquinolin-4-yloxy]phenyl}amine], the IC50 came to 762 nM. Regarding `COc1cc2nccc(Oc3ccc(NC(=O)NCCC(C)(C)C)cc3)c2cc1OCCCCN1CCOCC1` [Compound 227, 1-(3,3-Dimethyl-butyl)-3-{4-[7-methoxy-6-(4-morpholin-4-yl-butoxy)-quinolin-4-yloxy]-phenyl}-urea], the IC50 was found to be 23.9 nM. The value for `COc1cc2c(Oc3ccc(NC(=O)NCCC(C)(C)C)cc3)ccnc2cc1OCC(O)CN1CCC(N2CCCCC2)CC1` (centres unmarked) [Compound 261, 1-{4-[7-(3-[1,4′]Bipiperidineyl-1′-yl-2-hydroxy-propoxy)-6-methoxy-quinolin-4-yloxy]-phenyl}-3-(3,3-dimethyl-butyl)-urea] was less than 10 nM. Take `COc1cc2c(Oc3ccc(NC(=O)NCCC(C)(C)C)cc3F)ccnc2cc1OCCCN1CCC(CCO)CC1` [Compound 298, 1-(3,3-Dimethyl-butyl)-3-[3-fluoro-4-(7-{3-[4-(2-hydroxy-ethyl)-1-piperidin-1-yl]-propoxy}-6-methoxy-quinolin-4-yloxy)-phenyl]-urea]: the IC50 came to 41.7 nM. For the molecule `COc1cc2nccc(Oc3ccc(NC(=O)NC(C)(C)CC(C)(C)C)cc3)c2cc1OC` [Compound 143, 1-[4-(6,7-Dimethoxy-quinolin-4-yloxy)-phenyl]-3-(1,1,3,3-tetramethyl-butyl)-urea], the IC50 was 192 nM. As for `CCN(CC)CC(O)COc1cc2nccc(Oc3ccc(NC(=O)NCCC(C)(C)C)c(Cl)c3)c2cc1OC` (centres unmarked) [Compound 191, 1-{2-Chloro-4-[7-(3-diethylamino-2-hydroxy-propoxy)-6-methoxy-quinolin-4-yloxy]-phenyl}-3-(3,3-dimethyl-butyl)-urea], the IC50 came out at 10.6 nM. The value for `COc1cc2c(Oc3ccc(NC(=O)NCCC(C)(C)C)cc3)ccnc2cc1OCC(O)CN1CC(C)CC(C)C1` (centres unmarked) [Compound 251, 1-(3,3-Dimethyl-butyl)-3-(4-{7-[3-(3,5-dimethyl-piperidin-1-yl)-2-hydroxy-propoxy]-6-methoxy-quinolin-4-yloxy}-phenyl)-urea] was 20.7 nM; that for `COc1cc2nccc(Oc3ccc(NC(=O)NCCC(C)(C)C)cc3)c2cc1OCCCCN(C)C` [Compound 228, 1-{4-[6-(4-Dimethylamino-butoxy)-7-methoxy-quinolin-4-yloxy]-phenyl}-3-(3,3-dimethyl-butyl)-urea] was 38.5 nM; that for `COc1cc2nccc(Oc3ccc(NC4CCC(C(C)(C)C)CC4)cc3)c2cc1OC` (centres unmarked) [Compound 77, (4-Tert-butylcyclohexyl)-[4-(6,7-dimethoxyquinolin-4-yloxy)phenyl]amine] was 3450 nM. On to `COc1cc2c(Oc3ccc(NC(=O)NCCC(C)(C)C)cc3)ccnc2cc1OCCNC(C)CO` (centres unmarked) [Compound 361, 1-(3,3-Dimethyl-butyl)-3-(4-{7-[2-(2-hydroxy-1-methyl-ethylamino)-ethoxy]-6-methoxy-quinolin-4-yloxy}-phenyl)-urea], for which the IC50 is 29.8 nM.

With `COc1cc2c(Oc3ccc(NC(=O)NCCC(C)(C)C)c(F)c3)ccnc2cc1OCCCN1CCC(CO)CC1` [Compound 303, 1-(3,3-Dimethyl-butyl)-3-(2-fluoro-4-{7-[3-(4-hydroxymethyl-piperidin-1-yl)-propoxy]-6-methoxy-quinolin-4-yloxy}-phenyl)-urea], the IC50 turned out to be 22 nM. Regarding `COc1cc2c(Oc3ccc(NC(=O)NCCC(C)(C)C)c(Cl)c3)ccnc2cc1OCCN1CCC(C)CC1` [Compound 117, 1-(2-Chloro-4-{6-methoxy-7-[2-(4-methyl-piperidin-1-yl)-ethoxy]-quinolin-4-yloxy}-phenyl)-3-(3,3-dimethyl-butyl)-urea], the IC50 came to 178 nM. Consider `CCCCc1ccc(Nc2ccc(Oc3ccnc4cc(OC)c(OC)cc34)cc2)cc1` [Compound 8, (4-Butylphenyl)-[4-(6,7-dimethoxyquinolin-4-yloxy)phenyl]amine], for which the IC50 turned out to be 1500 nM. Regarding `COc1cc2nccc(Oc3ccc(Nc4ccc(C(C)(C)C)cc4)cc3)c2cc1OCC(O)CN1CCOCC1` (centres unmarked) [Compound 213, 1-{4-[4-(4-Tert-butyl-phenylamino)-phenoxy]-7-methoxy-quinolin-6-yloxy}-3-morpholin-4-yl-propan-2-ol], the IC50 is 126 nM.

Regarding `COc1cc2c(Oc3ccc(NC(=O)NCCC(C)(C)C)cc3)ccnc2cc1OCCCCN1CCOCC1` [Compound 158, 1-(3,3-Dimethyl-butyl)-3-{4-[6-methoxy-7-(4-morpholin-4-yl-butoxy)-quinolin-4-yloxy]-phenyl}-urea hydrochloride], the IC50 is 32.1 nM.

For the molecule `COc1cc2c(Oc3ccc(Nc4ccc(C(C)(C)C)cc4)cc3)ccnc2cc1OCCCN1CCC(N2CCCC2)CC1` [Compound 237, (4-Tert-butyl-phenyl)-(4-{6-methoxy-7-[3-(4-pyrrolidin-1-yl-piperidin-1-yl)-propoxy]-quinolin-4-yloxy}-phenyl)-amine], the IC50 worked out at 207 nM. On to `COc1cc2c(Oc3ccc(NC(=O)NCCC(C)(C)C)c(Cl)c3)ccnc2cc1OCCCN1CC(C)OC(C)C1` (centres unmarked) [Compound 317, 1-(2-Chloro-4-{7-[3-(2,6-dimethyl-morpholin-4-yl)-propoxy]-6-methoxy-quinolin-4-yloxy}-phenyl)-3-(3,3-dimethyl-butyl)-urea], for which the IC50 came out at 20.4 nM. Consider `COc1cc2c(Oc3ccc(Nc4ccc(C(C)(C)C)cc4)cc3F)ccnc2cc1OCCCN1CCC(O)CC1` [Compound 273, 1-(3-{4-[4-(4-Tert-butyl-phenylamino)-2-fluoro-phenoxy]-6-methoxy-quinolin-7-yloxy}-propyl)-piperidin-4-ol], for which the IC50 worked out at 161 nM. The result for `COc1cc2c(Oc3ccc(NC(=O)NCCC(C)(C)C)cc3)ccnc2cc1OCCCN1CCCCC1` [Compound 154, 1-(3,3-Dimethyl-butyl)-3-{4-[6-methoxy-7-(3-piperidin-1-yl-propoxy)-quinolin-4-yloxy]-phenyl}-urea hydrochloride] reads 24.4 nM; that for `COc1cc2nccc(Oc3ccc(Nc4ccsc4)cc3)c2cc1OC` [Compound 73, [4-(6,7-Dimethoxyquinolin-4-yloxy)phenyl]thiophen-3-ylamine], 3510 nM. For the molecule `COc1cc2c(Oc3ccc(NC(=O)NCCC(C)(C)C)c(Cl)c3)ccnc2cc1OC[C@@H](O)CN1CCOCC1` [Compound 197, 1-{2-Chloro-4-[7-(2-hydroxy-3-morpholin-4-yl-propoxy)-6-methoxy-quinolin-4-yloxy]-phenyl}-3-(3,3-dimethyl-butyl)-urea], the IC50 was less than 10 nM.

On to `COc1cc2c(Oc3ccc(NC(=O)NCCC(C)(C)C)c(Cl)c3)ccnc2cc1OCC(O)CN1CCCCCC1` (centres unmarked) [Compound 194, 1-{4-[7-(3-Azepan-1-yl-2-hydroxy-propoxy)-6-methoxy-quinolin-4-yloxy]-2-chloro-phenyl}-3-(3,3-dimethyl-butyl)-urea], for which the IC50 is 19.7 nM. Consider `COc1cc2c(Oc3ccc(NC(=O)NCCC(C)(C)C)c(Cl)c3)ccnc2cc1OCCN(CCO)CCO` [Compound 176, 1-[4-(7-{2-[Bis-(2-hydroxy-ethyl)-amino]-ethoxy}-6-methoxy-quinolin-4-yloxy)-2-chloro-phenyl]-3-(3,3-dimethyl-butyl)-urea], for which the IC50 was less than 10 nM. `COc1cc2c(Oc3ccc(NC(=O)NCCC(C)(C)C)c(Cl)c3)ccnc2cc1OCCCN1CCC(C)CC1` [Compound 207, 1-(2-Chloro-4-{6-methoxy-7-[3-(4-methyl-piperidin-1-yl)-propoxy]-quinolin-4-yloxy}-phenyl)-3-(3,3-dimethyl-butyl)-urea]: the IC50 worked out at 60 nM. The value for `COCC1CCN(CCOc2cc3nccc(Oc4ccc(Nc5ccc(C(C)(C)C)cc5)cc4)c3cc2OC)CC1` [Compound 281, (4-Tert-butyl-phenyl)-(4-{6-methoxy-7-[2-(4-methoxymethyl-piperidin-1-yl)-ethoxy]-quinolin-4-yloxy}-phenyl)-amine] was 244 nM. With `COc1cc2c(Oc3ccc(NC(=O)NCCC(C)(C)C)c(Cl)c3)ccnc2cc1OCC(O)CN1CCOCC1` (centres unmarked) [Compound 206, 1-{2-Chloro-4-[7-(2-hydroxy-3-morpholin-4-yl-propoxy)-6-methoxy-quinolin-4-yloxy]-phenyl}-3-(3,3-dimethyl-butyl)-urea], the IC50 amounted to 18.5 nM. The result for `COC(=O)COc1cc2nccc(Oc3ccc(NC(=O)NCCC(C)(C)C)cc3)c2cc1OC` [Compound 215, Methyl (4-{4-[3-(3,3-dimethyl-butyl)-ureido]-phenoxy}-6-methoxy-quinolin-7-yloxy)-acetate] reads 341 nM; that for `COc1cc2c(Oc3ccc(Nc4ccc(C(C)(C)C)cc4)cc3)ccnc2cc1OCCN1CCCCCC1` [Compound 50, {4-[7-(2-Azepan-1-ylethoxy)-6-methoxyquinolin-4-yloxy]phenyl}-(4-tert-butylphenyl)amine], 35 nM. The value for `COc1cc2nccc(Oc3ccc(NC(=O)NCCC(C)(C)C)cc3Cl)c2cc1OC` [Compound 374, 1-[3-Chloro-4-(6,7-dimethoxy-quinolin-4-yloxy)-phenyl]-3-(3,3-dimethyl-butyl)-urea] was 32.8 nM. For the molecule `COc1cc2nccc(Oc3ccc(Nc4ccc(OC(F)(F)F)cc4)cc3)c2cc1OC` [Compound 6, [4-(6,7-Dimethoxyquinolin-4-yloxy)phenyl]-(4-trifluoromethoxy-phenyl)amine], the IC50 came out at 875 nM. As to `CCN(CC)CCCOc1cc2nccc(Oc3ccc(NC(=O)NCCC(C)(C)C)c(Cl)c3)c2cc1OC` [Compound 183, 1-{2-Chloro-4-[7-(3-diethylamino-propoxy)-6-methoxy-quinolin-4-yloxy]-phenyl}-3-(3,3-dimethyl-butyl)-urea], the IC50 worked out at 15.4 nM.
